In publication PMC6556873, “Rapid Covalent-Probe Discovery by Electrophile-Fragment Screening” (Journal of the American Chemical Society, 2019):
Read-outs that look alike come from different tables or passages of the source.

How the values were obtained:
[1] = in vitro; parameters: species or system CCD841, HEK293; settings: human, hb2 cells, read-out: HB-2 Cells Viability (%)
[2] = in vitro; parameters: species or system HB2, HEK293; settings: human, ccd841 cells
[3] = target: T1, NUDT7 (Homo sapiens, UniProt P0C024); parameters: Intact protein LC/MS covalent labelling, fragments in pools of five, 200 uM each, 4 °C; settings: 24 h, 4 °C, pool of five; 200 µM; covalent
T1 construct: residues 14-235, E. coli, pNIC28-Bsa4, N-terminal His6 tag removed by TEV, construct 26672 Da

[4] = target: T2, BSA (Bos taurus, UniProt P02769); parameters: Intact protein LC/MS covalent labelling, fragments in pools of five, 200 uM each, 4 °C; settings: 24 h, 4 °C, pool of five; 200 µM; covalent
T2 construct: gene ALB

[5] = target: T3, OTUB2 (OTUB2A) (Homo sapiens, UniProt Q96DC9); parameters: Intact protein LC/MS covalent labelling, fragments in pools of five, 200 uM each, 4 °C; settings: 24 h, 4 °C, pool of five; 200 µM; covalent
T3 construct: full length residues 1-234, E. coli BL21(DE3)-R3, His tag removed by TEV, construct 27312 Da
T3 sequence (Q96DC9 1-234): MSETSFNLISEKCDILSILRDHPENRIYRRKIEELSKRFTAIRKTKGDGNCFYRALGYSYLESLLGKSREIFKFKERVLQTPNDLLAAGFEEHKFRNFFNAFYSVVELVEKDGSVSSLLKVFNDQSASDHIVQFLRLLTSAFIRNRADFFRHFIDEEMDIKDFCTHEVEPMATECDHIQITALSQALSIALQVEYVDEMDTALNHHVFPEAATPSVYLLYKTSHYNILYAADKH

[6] = target: T4, NNMT (hNNMT) (Homo sapiens, UniProt P40261); parameters: Intact protein LC/MS covalent labelling, fragments in pools of five, 200 uM each, 4 °C; settings: 24 h, 4 °C, pool of five; 200 µM; covalent
T4 construct: wild type, N-terminal His6 tag kept (no cleavage described), E. coli, construct 31248 Da
T4 sequence (P40261 1-264): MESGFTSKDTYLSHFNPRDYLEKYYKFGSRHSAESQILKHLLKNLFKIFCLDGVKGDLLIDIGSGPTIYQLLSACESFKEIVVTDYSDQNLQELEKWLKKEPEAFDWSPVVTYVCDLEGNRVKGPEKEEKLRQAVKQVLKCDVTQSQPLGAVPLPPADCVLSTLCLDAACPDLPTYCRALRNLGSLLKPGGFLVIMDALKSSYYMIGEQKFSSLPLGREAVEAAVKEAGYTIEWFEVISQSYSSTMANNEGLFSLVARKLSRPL

[7] = target: T5, PCAF (Homo sapiens, UniProt Q92831); parameters: Intact protein LC/MS covalent labelling, fragments in pools of five, 200 uM each, 4 °C; settings: 24 h, 4 °C, pool of five; 200 µM; covalent
T5 construct: gene KAT2B

[8] = in vitro; parameters: species or system HB2, CCD841; settings: human, hek293 cells

T1 sequence (P0C024 14-235): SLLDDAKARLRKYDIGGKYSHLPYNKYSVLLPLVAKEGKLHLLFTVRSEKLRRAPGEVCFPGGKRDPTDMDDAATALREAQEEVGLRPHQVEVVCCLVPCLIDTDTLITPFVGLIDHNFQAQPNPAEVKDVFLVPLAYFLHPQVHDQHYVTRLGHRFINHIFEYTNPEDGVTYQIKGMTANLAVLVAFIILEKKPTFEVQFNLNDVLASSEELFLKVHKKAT
T2 sequence (P02769 whole entry, the tested form may be a part): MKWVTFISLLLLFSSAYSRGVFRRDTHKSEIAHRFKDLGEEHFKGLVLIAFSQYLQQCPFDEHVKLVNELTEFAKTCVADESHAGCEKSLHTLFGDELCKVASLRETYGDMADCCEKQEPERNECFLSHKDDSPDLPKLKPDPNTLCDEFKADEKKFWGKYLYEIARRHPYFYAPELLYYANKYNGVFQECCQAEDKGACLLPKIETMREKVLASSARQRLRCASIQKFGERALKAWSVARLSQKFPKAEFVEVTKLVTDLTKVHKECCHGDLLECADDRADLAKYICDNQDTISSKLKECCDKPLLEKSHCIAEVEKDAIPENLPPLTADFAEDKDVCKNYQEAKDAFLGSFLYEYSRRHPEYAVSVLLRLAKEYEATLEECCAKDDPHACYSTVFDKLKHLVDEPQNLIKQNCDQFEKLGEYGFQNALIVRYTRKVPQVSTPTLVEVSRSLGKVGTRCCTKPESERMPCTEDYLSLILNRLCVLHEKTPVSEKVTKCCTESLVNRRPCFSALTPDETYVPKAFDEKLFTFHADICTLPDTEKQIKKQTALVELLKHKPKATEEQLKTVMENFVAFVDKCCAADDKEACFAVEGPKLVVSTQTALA
T5 sequence (Q92831 whole entry, the tested form may be a part): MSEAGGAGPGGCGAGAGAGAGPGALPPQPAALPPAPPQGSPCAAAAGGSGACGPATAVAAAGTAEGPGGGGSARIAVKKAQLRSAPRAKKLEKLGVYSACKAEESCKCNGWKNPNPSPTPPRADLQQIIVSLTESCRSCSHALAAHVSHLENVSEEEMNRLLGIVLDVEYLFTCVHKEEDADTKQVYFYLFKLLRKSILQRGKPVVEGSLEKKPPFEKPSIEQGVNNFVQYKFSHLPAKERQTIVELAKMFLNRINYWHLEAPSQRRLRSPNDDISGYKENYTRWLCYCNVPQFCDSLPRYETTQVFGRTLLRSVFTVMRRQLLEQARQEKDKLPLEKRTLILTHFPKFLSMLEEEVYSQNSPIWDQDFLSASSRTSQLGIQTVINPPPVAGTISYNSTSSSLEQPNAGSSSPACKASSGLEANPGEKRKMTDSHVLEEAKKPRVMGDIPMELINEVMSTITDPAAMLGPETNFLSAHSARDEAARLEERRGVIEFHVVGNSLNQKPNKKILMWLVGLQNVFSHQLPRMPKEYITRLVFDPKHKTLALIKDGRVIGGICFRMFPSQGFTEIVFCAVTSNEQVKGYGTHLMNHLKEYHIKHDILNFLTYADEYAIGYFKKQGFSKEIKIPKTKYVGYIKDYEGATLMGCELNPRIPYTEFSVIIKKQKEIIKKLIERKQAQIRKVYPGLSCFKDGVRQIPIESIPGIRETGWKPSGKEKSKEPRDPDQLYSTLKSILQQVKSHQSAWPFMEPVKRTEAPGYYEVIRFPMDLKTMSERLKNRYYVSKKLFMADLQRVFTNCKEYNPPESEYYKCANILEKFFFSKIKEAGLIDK

COC(=O)c1c(NC(=O)CCl)sc(C)c1C [PCM-0102322]
viability at 48 h, 10 µM [1]: 62.5% | viability at 48 h, 10 µM [2]: 80% | NUDT7 [3]: 0.4 | BSA [4]: 0 | OTUB2 [5]: 0 | NNMT [6]: 0.18 | PCAF [7]: 0 | viability at 48 h, 10 µM [8]: 33.3%

O=C(CCl)N=c1sccn1Cc1ccccc1 [PCM-0102469]
viability at 48 h, 10 µM [1]: 42.3% | viability at 48 h, 10 µM [2]: 5.2% | NUDT7 [3]: 0 | BSA [4]: 0 | OTUB2 [5]: 0.11 | NNMT [6]: 0.25 | PCAF [7]: 0 | viability at 48 h, 10 µM [8]: 7%

CNC(=O)NC(=O)CCl [PCM-0102534]
viability at 48 h, 10 µM [1]: 97.9% | viability at 48 h, 10 µM [2]: 94.3% | NUDT7 [3]: 0 | BSA [4]: 0 | OTUB2 [5]: 0 | NNMT [6]: 0 | PCAF [7]: 0 | viability at 48 h, 10 µM [8]: 92.2%

O=C(CCl)Nc1ccccc1N1CCCC1 [PCM-0102135]
viability at 48 h, 10 µM [1]: 98.5% | viability at 48 h, 10 µM [2]: 95% | NUDT7 [3]: 0 | BSA [4]: 0 | OTUB2 [5]: 0 | NNMT [6]: 0 | PCAF [7]: 0 | viability at 48 h, 10 µM [8]: 91.3%

O=C(CCl)Nc1nc(C2CC2)no1 [PCM-0103076]
viability at 48 h, 10 µM [1]: 104% | viability at 48 h, 10 µM [2]: 102% | NUDT7 [3]: 0 | BSA [4]: 0 | OTUB2 [5]: 0.11 | NNMT [6]: 0.16 | PCAF [7]: 0 | viability at 48 h, 10 µM [8]: 97.9%

C=CC(=O)Nc1ccc(C(=O)O)cc1 [PCM-0102271]
viability at 48 h, 10 µM [1]: 111% | viability at 48 h, 10 µM [2]: 94.2% | NUDT7 [3]: 0 | BSA [4]: 0 | OTUB2 [5]: 0 | NNMT [6]: 0 | PCAF [7]: 0 | viability at 48 h, 10 µM [8]: 95.1%

C=CC(=O)N1Cc2ccc(S(=O)(=O)N(C)C)cc2C1 [PCM-0102718]
viability at 48 h, 10 µM [1]: 97.4% | viability at 48 h, 10 µM [2]: 99.7% | NUDT7 [3]: 0 | BSA [4]: 0.3 | OTUB2 [5]: 0 | NNMT [6]: 0 | PCAF [7]: 0 | viability at 48 h, 10 µM [8]: 73.6%

C=CC(=O)N1CCCC(Cc2nnc3ccccn23)C1 (stereo not shown) [PCM-0102909]
viability at 48 h, 10 µM [1]: 101% | viability at 48 h, 10 µM [2]: 87.9% | NUDT7 [3]: 0 | BSA [4]: 0 | OTUB2 [5]: 0 | NNMT [6]: 0 | PCAF [7]: 0 | viability at 48 h, 10 µM [8]: 108%

O=C(CCl)N1CCN(S(=O)(=O)c2cccs2)CC1 [PCM-0102241]
viability at 48 h, 10 µM [1]: 8.9% | viability at 48 h, 10 µM [2]: 49.1% | NUDT7 [3]: 0.12 | BSA [4]: 0 | OTUB2 [5]: 0 | NNMT [6]: 0 | PCAF [7]: 0 | viability at 48 h, 10 µM [8]: 8.9%

O=C(CCl)Nc1cccc(Cl)c1 [PCM-0102198]
viability at 48 h, 10 µM [1]: 9% | viability at 48 h, 10 µM [2]: 41.1% | NUDT7 [3]: 0.28 | BSA [4]: 0 | OTUB2 [5]: 0.37 | NNMT [6]: 0 | PCAF [7]: 0 | viability at 48 h, 10 µM [8]: 1.8%

O=C(CCl)Nc1nnc(-c2ccccc2)o1 [PCM-0102458]
viability at 48 h, 10 µM [1]: 97.2% | viability at 48 h, 10 µM [2]: 98% | NUDT7 [3]: 0 | BSA [4]: 0 | OTUB2 [5]: 0.08 | NNMT [6]: 0.14 | PCAF [7]: 0 | viability at 48 h, 10 µM [8]: 104%

N#CCN(C(=O)CCl)c1ccccc1 [PCM-0102471]
viability at 48 h, 10 µM [1]: 43.7% | viability at 48 h, 10 µM [2]: 24.4% | NUDT7 [3]: 0 | BSA [4]: 0.18 | OTUB2 [5]: 0.19 | NNMT [6]: 0.25 | PCAF [7]: 0 | viability at 48 h, 10 µM [8]: 16%

C=CC(=O)NC(=O)Nc1ccccc1 [PCM-0102883]
viability at 48 h, 10 µM [1]: 5.4% | viability at 48 h, 10 µM [2]: 17.8% | NUDT7 [3]: 0 | BSA [4]: 0 | OTUB2 [5]: 0 | NNMT [6]: 0 | PCAF [7]: 0 | viability at 48 h, 10 µM [8]: 4%

O=C(CCl)Nc1ccccc1C(F)(F)F [PCM-0102170]
viability at 48 h, 10 µM [1]: 96.7% | viability at 48 h, 10 µM [2]: 99.1% | NUDT7 [3]: 0 | BSA [4]: 0 | OTUB2 [5]: 0 | NNMT [6]: 0.12 | PCAF [7]: 0 | viability at 48 h, 10 µM [8]: 72.6%

C=CC(=O)N1CCc2sccc2C1c1cccs1 (stereo not shown) [PCM-0102640]
viability at 48 h, 10 µM [1]: 97.9% | viability at 48 h, 10 µM [2]: 115% | NUDT7 [3]: 0 | BSA [4]: 0 | OTUB2 [5]: 0 | NNMT [6]: 0 | PCAF [7]: 0 | viability at 48 h, 10 µM [8]: 98.7%

O=C(CCl)Nc1ccc(C(=O)O)cc1 [PCM-0102400]
viability at 48 h, 10 µM [1]: 84.1% | viability at 48 h, 10 µM [2]: 72.5% | NUDT7 [3]: 0 | BSA [4]: 0 | OTUB2 [5]: 0 | NNMT [6]: 0 | PCAF [7]: 0 | viability at 48 h, 10 µM [8]: 112%

Cc1ccc(C(=O)N2CCN(C(=O)CCl)CC2)cc1 [PCM-0102962]
viability at 48 h, 10 µM [1]: 30.1% | viability at 48 h, 10 µM [2]: 75.3% | NUDT7 [3]: 0 | BSA [4]: 0 | OTUB2 [5]: 0 | NNMT [6]: 0 | PCAF [7]: 0 | viability at 48 h, 10 µM [8]: 15.6%

COc1cccc2sc(NC(=O)CCl)nc12.Cl [PCM-0103067]
viability at 48 h, 10 µM [1]: 32.2% | viability at 48 h, 10 µM [2]: 48.9% | NUDT7 [3]: 1 | BSA [4]: 0 | OTUB2 [5]: 0.16 | NNMT [6]: 1 | PCAF [7]: 0 | viability at 48 h, 10 µM [8]: 47.6%

O=C(CCl)N1CCOC1=O [PCM-0102943]
viability at 48 h, 10 µM [1]: 101% | viability at 48 h, 10 µM [2]: 109% | NUDT7 [3]: 0.08 | BSA [4]: 0 | OTUB2 [5]: 0 | NNMT [6]: 0 | PCAF [7]: 0 | viability at 48 h, 10 µM [8]: 108%

O=C(CCl)Nc1ccccc1N1CCCC1=O [PCM-0102375]
viability at 48 h, 10 µM [1]: 79.6% | viability at 48 h, 10 µM [2]: 78% | NUDT7 [3]: 0 | BSA [4]: 0 | OTUB2 [5]: 0.13 | NNMT [6]: 0 | PCAF [7]: 0 | viability at 48 h, 10 µM [8]: 51.9%
